“And” between values parts separate entries of the source, which are not always exact repeats. Equal values may be shown once. Inconclusive results and toxic doses are left out. Rule as the data show it: active = T/C of 150% or more; inactive = T/C below 125%.
Test system: L1210 leukemia ip in BDF1 mice, survival T/C
Test: NCI In Vivo Anticancer Drug Screen. Data for tumor model L1210 Leukemia (intraperitoneal) in B6D2F1 (BDF1) mice
Conditions: endpoint: mean survival time, higher = longer survival
Outline: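 Each compound was tested against a transplantable tumor grown in mice. The endpoint was survival, with treated animals benchmarked against vehicle controls as a simple ratio.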

[1] = dose: 10.0 mg/kg/injection, schedule: Q04DX003 (ip), vehicle: Klucel (hydroxypropylcellulose) (HPC)
[2] = dose: 20.0 mg/kg/injection, schedule: Q04DX003 (ip), vehicle: Klucel (hydroxypropylcellulose) (HPC)
[3] = dose: 100.0 mg/kg/injection, schedule: Q01DX009 (ip), vehicle: Klucel (hydroxypropylcellulose) (HPC)
[4] = dose: 200.0 mg/kg/injection, schedule: Q01DX009 (ip), vehicle: Klucel (hydroxypropylcellulose) (HPC)
[5] = dose: 100.0 mg/kg/injection, schedule: Q04DX003 (ip), vehicle: Klucel (hydroxypropylcellulose) (HPC)
[6] = dose: 400.0 mg/kg/injection, schedule: Q04DX003 (ip), vehicle: Klucel (hydroxypropylcellulose) (HPC)

Measured: T/C

COC(=O)c1ccc(C(C)=O)cc1
inactive: dose: 100.0 mg/kg/injection, schedule: Q01DX001 (ip), vehicle: saline with Tween-80 103 % of control | dose: 200.0 mg/kg/injection, schedule: Q01DX001 (ip), vehicle: saline with Tween-80 97 % of control | dose: 400.0 mg/kg/injection, schedule: Q01DX001 (ip), vehicle: saline with Tween-80 100 % of control

CC1(c2cccc3ccccc23)OCC2(CCCCC2)CO1
inactive: dose: 81.3 mg/kg/injection, schedule: Q01DX009 (ip), vehicle: DMSO 109 % of control | dose: 100.0 mg/kg/injection, schedule: Q04DX003 (ip), vehicle: DMSO 92 % of control | dose: 200.0 mg/kg/injection, schedule: Q04DX003 (ip), vehicle: DMSO 90 % of control | dose: 400.0 mg/kg/injection, schedule: Q04DX003 (ip), vehicle: DMSO 95 % of control

COc1cccc(NC(=S)C(C#N)C(=O)Nc2cccc(C(F)(F)F)c2)c1 (centres undefined)
inactive: dose: 25.0 mg/kg/injection, schedule: Q04DX002 (ip), vehicle: gum acacia 106 % of control | dose: 50.0 mg/kg/injection, schedule: Q04DX002 (ip), vehicle: gum acacia 109 % of control | dose: 100.0 mg/kg/injection, schedule: Q04DX002 (ip), vehicle: gum acacia 98 % of control and 88 % of control

C(=NCC(CCN1CCCCC1)(CCN1CCCCC1)c1cccc2ccccc12)C(CCN1CCCCC1)(CCN1CCCCC1)c1cccc2ccccc12
inactive: dose: 5.0 mg/kg/injection, schedule: Q04DX003 (ip), vehicle: Klucel (hydroxypropylcellulose) (HPC) 119 % of control | [1] 114 % of control | [2] 110 % of control

Cc1nccnc1Sc1ccc(Br)cc1
inactive: dose: 50.0 mg/kg/injection, schedule: Q01DX009 (ip), vehicle: Klucel (hydroxypropylcellulose) (HPC) 106 % of control | [3] 113 % of control | [4] 106 % of control

C#CC(=O)CCCCCCl
inactive: dose: 6.25 mg/kg/injection, schedule: Q01DX009 (sc), vehicle: olive oil, sesame oil, peanut oil 100 % of control | dose: 12.5 mg/kg/injection, schedule: Q01DX009 (sc), vehicle: olive oil, sesame oil, peanut oil 94 % of control | dose: 12.5 mg/kg/injection, schedule: Q04DX002 (sc), vehicle: olive oil, sesame oil, peanut oil 103 % of control | dose: 25.0 mg/kg/injection, schedule: Q01DX009 (sc), vehicle: olive oil, sesame oil, peanut oil 97 % of control | dose: 25.0 mg/kg/injection, schedule: Q04DX002 (sc), vehicle: olive oil, sesame oil, peanut oil 95 % of control

N=C(CC(=O)Nc1ccccn1)c1ccccc1
inactive: dose: 100.0 mg/kg/injection, schedule: Q01DX001 (ip), vehicle: other 100 % of control | dose: 200.0 mg/kg/injection, schedule: Q01DX001 (ip), vehicle: other 107 % of control | dose: 400.0 mg/kg/injection, schedule: Q01DX001 (ip), vehicle: other 89 % of control

CC(C)=CCCC1(C)C=Cc2c(c(C)cc3c4ccccc4n(C)c23)O1 (centres undefined)
inactive: dose: 25.0 mg/kg/injection, schedule: Q04DX002 (ip), vehicle: DMSO 96 % of control | dose: 50.0 mg/kg/injection, schedule: Q04DX002 (ip), vehicle: DMSO 89 % of control | dose: 100.0 mg/kg/injection, schedule: Q04DX002 (ip), vehicle: DMSO 99 % of control

Cc1cc2oc(=O)c(Cl)c(Cl)c2c(C)c1Cl
inactive: dose: 10.0 mg/kg/injection, schedule: Q01DX001 (ip), vehicle: saline 105 % of control | dose: 10.0 mg/kg/injection, schedule: Q01DX009 (ip), vehicle: Klucel (hydroxypropylcellulose) (HPC) 101 % of control | [1] 86 % of control | dose: 20.0 mg/kg/injection, schedule: Q01DX001 (ip), vehicle: saline 111 % of control | dose: 20.0 mg/kg/injection, schedule: Q01DX009 (ip), vehicle: Klucel (hydroxypropylcellulose) (HPC) 101 % of control | [2] 93 % of control

COC1(OC)C2CCC1C(O)C2 (centres undefined)
inactive: dose: 100.0 mg/kg/injection, schedule: Q01DX009 (ip), vehicle: saline 104 % of control | dose: 200.0 mg/kg/injection, schedule: Q01DX009 (ip), vehicle: saline 105 % of control

O=C(O)C1OC1(c1cccc(Cl)c1)c1ccccc1Cl (centres undefined)
inactive: dose: 100.0 mg/kg/injection, schedule: Q01DX001 (ip), vehicle: olive oil, sesame oil, peanut oil 101 % of control | dose: 200.0 mg/kg/injection, schedule: Q01DX001 (ip), vehicle: olive oil, sesame oil, peanut oil 106 % of control

CC12CC(C(=O)c3ccccc3)C(C)(C1=O)C(c1ccccc1)=C2c1ccccc1 (centres undefined)
inactive: dose: 100.0 mg/kg/injection, schedule: Q04DX003 (ip), vehicle: saline with Tween-80 96 % of control | dose: 200.0 mg/kg/injection, schedule: Q04DX003 (ip), vehicle: saline with Tween-80 89 % of control | dose: 400.0 mg/kg/injection, schedule: Q04DX003 (ip), vehicle: saline with Tween-80 89 % of control

Cc1cc(C(C)(C)CC(C)(C)C)cc(O)c1O
inactive: dose: 100.0 mg/kg/injection, schedule: Q01DX009 (ip), vehicle: other 94 % of control | dose: 100.0 mg/kg/injection, schedule: Q04DX003 (ip), vehicle: other 96 % of control | dose: 200.0 mg/kg/injection, schedule: Q01DX009 (ip), vehicle: other 94 % of control | dose: 200.0 mg/kg/injection, schedule: Q04DX003 (ip), vehicle: other 93 % of control | dose: 400.0 mg/kg/injection, schedule: Q01DX009 (ip), vehicle: other 94 % of control | dose: 400.0 mg/kg/injection, schedule: Q04DX003 (ip), vehicle: other 91 % of control

COc1ccc(/C=C(/c2ccccc2)[N+](=O)[O-])cc1
inactive: dose: 176.0 mg/kg/injection, schedule: Q01DX001 (ip), vehicle: carboxymethylcellulose (CMC) 102 % of control | dose: 264.0 mg/kg/injection, schedule: Q01DX001 (ip), vehicle: carboxymethylcellulose (CMC) 89 % of control | dose: 400.0 mg/kg/injection, schedule: Q01DX001 (ip), vehicle: carboxymethylcellulose (CMC) 89 % of control | dose: 600.0 mg/kg/injection, schedule: Q01DX001 (ip), vehicle: carboxymethylcellulose (CMC) 89 % of control

OC1C2CCC(CC2)C1O (centres undefined)
inactive: dose: 4.5 mg/kg/injection, schedule: Q01DX009 (ip), vehicle: saline with Tween-80 92 % of control | dose: 4.5 mg/kg/injection, schedule: Q04DX003 (ip), vehicle: other 108 % of control | dose: 9.0 mg/kg/injection, schedule: Q01DX009 (ip), vehicle: saline with Tween-80 92 % of control | dose: 9.0 mg/kg/injection, schedule: Q04DX003 (ip), vehicle: other 101 % of control | dose: 9.75 mg/kg/injection, schedule: Q01DX001 (ip), vehicle: other 104 % of control | dose: 18.0 mg/kg/injection, schedule: Q01DX009 (ip), vehicle: saline with Tween-80 86 % of control | dose: 18.0 mg/kg/injection, schedule: Q04DX003 (ip), vehicle: other 106 % of control | dose: 18.5 mg/kg/injection, schedule: Q01DX001 (ip), vehicle: other 107 % of control

Cc1c(Cl)cccc1NC(=O)c1ccc(Cl)cc1
inactive: [3] 87 % of control | [5] 93 % of control | [4] 91 % of control | dose: 200.0 mg/kg/injection, schedule: Q04DX003 (ip), vehicle: Klucel (hydroxypropylcellulose) (HPC) 96 % of control | dose: 400.0 mg/kg/injection, schedule: Q01DX009 (ip), vehicle: Klucel (hydroxypropylcellulose) (HPC) 97 % of control | [6] 91 % of control

CCOC(=O)C/C(C)=N\N=C(\C)C(=O)OCC
inactive: dose: 100.0 mg/kg/injection, schedule: Q01DX001 (ip), vehicle: saline 98 % of control | dose: 200.0 mg/kg/injection, schedule: Q01DX001 (ip), vehicle: saline 98 % of control | dose: 400.0 mg/kg/injection, schedule: Q01DX001 (ip), vehicle: saline 92 % of control

CC(C)(C)OC(=O)NC(C(=O)O)C1=CCC=CC1 (centres undefined)
inactive: [5] 94 % of control | [6] 102 % of control

From PubChem BioAssay AID248 (DTP/NCI, 2004)
